Test [1] has as its target wild-type un-phosphorylated FGFR3 (Homo sapiens, UniProt P22607). The experiment in a line: FGFR Enzymatic Assay (FRET peptide phosphorylation), FGFR3.
In test [2] the target is wild-type un-phosphorylated FGFR1 (Homo sapiens, UniProt P11362). Briefly: FGFR Enzymatic Assay (FRET peptide phosphorylation), FGFR1. Particulars: pre-incubated for 4 hours.
For test [3], the target named is wild-type un-phosphorylated FGFR4 (Homo sapiens, UniProt P22455). Briefly: FGFR Enzymatic Assay (FRET peptide phosphorylation), FGFR4.
The target of test [4] is wild-type un-phosphorylated FGFR2 (Homo sapiens, UniProt P21802). Briefly: FGFR Enzymatic Assay (FRET peptide phosphorylation), FGFR2.
The mark [5] stands for this setting: read-out: FGFR1, wild-type un-phosphorylated FGFR1.
[6] abbreviates: read-out: FGFR4, wild-type un-phosphorylated FGFR4, pre-incubated for 4 hours.
Where [7] appears, read: FGFR1, wild-type un-phosphorylated FGFR1.
[8] abbreviates: read-out: FGFR2, wild-type un-phosphorylated FGFR2, pre-incubated for 4 hours.

Where two headings read alike, the source gives them in different places. Bounds are passed on as bounds.

wild-type un-phosphorylated FGFR4, sequence (P22455 22-802): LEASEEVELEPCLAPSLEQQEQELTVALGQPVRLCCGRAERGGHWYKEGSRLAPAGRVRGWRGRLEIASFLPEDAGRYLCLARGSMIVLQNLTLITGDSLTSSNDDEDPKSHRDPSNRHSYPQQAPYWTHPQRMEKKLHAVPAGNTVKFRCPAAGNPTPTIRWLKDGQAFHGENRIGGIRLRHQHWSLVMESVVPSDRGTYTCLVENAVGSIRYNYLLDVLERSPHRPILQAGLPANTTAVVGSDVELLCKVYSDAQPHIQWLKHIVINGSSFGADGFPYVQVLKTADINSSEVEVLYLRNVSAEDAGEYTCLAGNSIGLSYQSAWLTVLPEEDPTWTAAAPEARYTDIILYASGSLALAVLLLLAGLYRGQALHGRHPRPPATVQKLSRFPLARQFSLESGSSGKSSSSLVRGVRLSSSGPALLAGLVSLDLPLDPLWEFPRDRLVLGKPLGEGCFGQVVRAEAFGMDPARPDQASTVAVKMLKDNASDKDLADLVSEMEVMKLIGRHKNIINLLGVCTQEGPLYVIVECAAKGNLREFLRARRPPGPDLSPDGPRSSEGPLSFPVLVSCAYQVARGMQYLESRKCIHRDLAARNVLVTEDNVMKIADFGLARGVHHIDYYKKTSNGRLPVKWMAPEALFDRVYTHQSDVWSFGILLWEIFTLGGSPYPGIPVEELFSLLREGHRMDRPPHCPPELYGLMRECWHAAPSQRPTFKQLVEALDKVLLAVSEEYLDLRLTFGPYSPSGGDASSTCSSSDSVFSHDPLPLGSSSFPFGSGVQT
wild-type un-phosphorylated FGFR2, sequence (P21802 22-821): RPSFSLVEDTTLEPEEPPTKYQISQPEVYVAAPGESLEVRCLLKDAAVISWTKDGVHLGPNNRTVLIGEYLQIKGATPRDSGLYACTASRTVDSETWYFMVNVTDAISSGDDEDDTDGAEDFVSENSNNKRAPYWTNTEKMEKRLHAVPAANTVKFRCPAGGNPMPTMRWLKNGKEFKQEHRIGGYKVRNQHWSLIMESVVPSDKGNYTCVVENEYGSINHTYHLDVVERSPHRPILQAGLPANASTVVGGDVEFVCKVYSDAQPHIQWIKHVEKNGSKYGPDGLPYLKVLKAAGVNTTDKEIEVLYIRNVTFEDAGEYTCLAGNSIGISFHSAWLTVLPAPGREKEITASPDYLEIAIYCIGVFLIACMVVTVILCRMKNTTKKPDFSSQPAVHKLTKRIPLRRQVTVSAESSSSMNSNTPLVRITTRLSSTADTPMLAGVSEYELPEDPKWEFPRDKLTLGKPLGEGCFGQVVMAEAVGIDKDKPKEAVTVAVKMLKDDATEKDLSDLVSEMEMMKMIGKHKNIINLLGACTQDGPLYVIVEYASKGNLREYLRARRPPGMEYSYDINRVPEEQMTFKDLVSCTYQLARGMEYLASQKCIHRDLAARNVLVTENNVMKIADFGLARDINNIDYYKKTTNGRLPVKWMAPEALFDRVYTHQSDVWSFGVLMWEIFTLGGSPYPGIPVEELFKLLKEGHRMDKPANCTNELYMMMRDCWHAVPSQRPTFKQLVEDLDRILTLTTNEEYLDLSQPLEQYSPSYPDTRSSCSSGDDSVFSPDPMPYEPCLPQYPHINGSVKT
wild-type un-phosphorylated FGFR3, sequence (P22607 23-806): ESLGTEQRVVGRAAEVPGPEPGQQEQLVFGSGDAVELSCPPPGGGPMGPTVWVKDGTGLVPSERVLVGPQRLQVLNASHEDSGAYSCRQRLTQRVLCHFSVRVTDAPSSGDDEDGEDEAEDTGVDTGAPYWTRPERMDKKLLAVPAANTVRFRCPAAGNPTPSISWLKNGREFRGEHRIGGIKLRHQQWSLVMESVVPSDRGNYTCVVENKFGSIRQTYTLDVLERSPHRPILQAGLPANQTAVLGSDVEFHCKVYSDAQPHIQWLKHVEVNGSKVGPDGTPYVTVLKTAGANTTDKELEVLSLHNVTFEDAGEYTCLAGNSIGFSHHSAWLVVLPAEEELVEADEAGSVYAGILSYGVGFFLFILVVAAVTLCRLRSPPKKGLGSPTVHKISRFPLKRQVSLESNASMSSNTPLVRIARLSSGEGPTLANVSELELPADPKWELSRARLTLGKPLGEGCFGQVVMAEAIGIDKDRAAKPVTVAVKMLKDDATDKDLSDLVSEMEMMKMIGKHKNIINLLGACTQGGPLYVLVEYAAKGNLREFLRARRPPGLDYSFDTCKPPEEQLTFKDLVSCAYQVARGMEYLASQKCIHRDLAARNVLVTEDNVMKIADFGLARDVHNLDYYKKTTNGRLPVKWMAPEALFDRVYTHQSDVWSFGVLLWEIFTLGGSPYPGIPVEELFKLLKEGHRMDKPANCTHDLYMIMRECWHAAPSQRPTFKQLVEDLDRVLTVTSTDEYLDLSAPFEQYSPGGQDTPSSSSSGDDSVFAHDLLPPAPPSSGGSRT
wild-type un-phosphorylated FGFR1, sequence (P11362 22-822): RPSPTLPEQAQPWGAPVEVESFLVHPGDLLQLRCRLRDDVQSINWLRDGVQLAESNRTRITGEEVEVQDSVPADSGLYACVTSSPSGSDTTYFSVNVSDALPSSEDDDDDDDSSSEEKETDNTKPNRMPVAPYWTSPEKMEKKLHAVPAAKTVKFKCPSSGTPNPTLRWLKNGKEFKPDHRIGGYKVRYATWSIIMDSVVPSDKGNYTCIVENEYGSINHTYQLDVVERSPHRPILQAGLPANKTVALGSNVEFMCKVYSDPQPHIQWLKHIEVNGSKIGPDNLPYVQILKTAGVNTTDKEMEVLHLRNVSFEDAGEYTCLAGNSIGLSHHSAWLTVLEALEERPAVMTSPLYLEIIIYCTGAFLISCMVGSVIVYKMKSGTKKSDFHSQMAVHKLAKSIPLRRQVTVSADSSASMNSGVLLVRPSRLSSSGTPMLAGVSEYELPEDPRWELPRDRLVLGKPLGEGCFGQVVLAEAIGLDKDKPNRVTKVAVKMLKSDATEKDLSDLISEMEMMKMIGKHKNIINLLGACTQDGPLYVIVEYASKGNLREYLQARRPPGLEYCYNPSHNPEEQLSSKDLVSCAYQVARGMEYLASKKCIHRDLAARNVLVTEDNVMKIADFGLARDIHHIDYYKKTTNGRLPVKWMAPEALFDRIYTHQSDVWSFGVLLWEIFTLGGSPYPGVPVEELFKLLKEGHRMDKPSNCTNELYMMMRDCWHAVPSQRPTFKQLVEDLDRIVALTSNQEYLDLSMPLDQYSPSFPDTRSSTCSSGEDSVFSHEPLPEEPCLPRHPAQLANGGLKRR

Consider `COc1cc2[nH]nc(-c3cnn(C4CN(C(=O)C5(CO)CCC5)C4)c3)c2nc1-c1cccc2c1CCC2` [Example 139, (3-(4-(5-(2,3-Dihydro-1H-inden-4-yl)-6-methoxy-1H-pyrazolo[4,3-b]pyridin-3-yl)-1H-pyrazol-1-yl)azetidin-1-yl)(1-(hydroxymethyl)cyclobutyl)methanone], for which the IC50 in test [1] is less than 6 nM; in test [2] (setting [5]), 6 to 40 nM; in test [3] (setting [6]), 6 to 40 nM; in test [4], less than 6 nM.
For `COCCOC(=O)N1CC(n2cc(-c3n[nH]c4cc(OC)c(-c5cccc6c5CCC6)nc34)cn2)C1` [Example 152, 2-Methoxyethyl 3-(4-(5-(2,3-dihydro-1H-inden-4-yl)-6-methoxy-1H-pyrazolo[4,3-b]pyridin-3-yl)-1H-pyrazol-1-yl)azetidine-1-carboxylate], the IC50 in test [1] was less than 6 nM; in test [2] (setting [7]), 40 to 100 nM; in test [3], 40 to 100 nM; in test [4], less than 6 nM.
Turning to `COc1cc2[nH]nc(-c3cnn([C@H]4CCN(C(=O)[C@H](C)O)C4)c3)c2nc1-c1cccc2c1CCC2` [Example 133, (S)-1-((S)-3-(4-(5-(2,3-Dihydro-1H-inden-4-yl)-6-methoxy-1H-pyrazolo[4,3-b]pyridin-3-yl)-1H-pyrazol-1-yl)pyrrolidin-1-yl)-2-hydroxypropan-1-one], the IC50 in test [1] was less than 6 nM; in test [2] (setting [5]), 6 to 40 nM; in test [3], 40 to 100 nM; in test [4] it was less than 6 nM.
Regarding `COc1cc2[nH]nc(-c3cnn(C4CN(C(=O)N(C)C)C4)c3)c2nc1-c1cccc(C)c1C` [Example 72, 3-(4-(5-(2,3-Dimethylphenyl)-6-methoxy-1H-pyrazolo[4,3-b]pyridin-3-yl)-1H-pyrazol-1-yl)-N,N-dimethylazetidine-1-carboxamide], the IC50 in test [1] was less than 6 nM; in test [2] (setting [7]), 40 to 100 nM; in test [3], 40 to 100 nM; in test [4], less than 6 nM.
Turning to `Cc1cccc(-c2nc3c(-c4cnn(C)c4)n[nH]c3cc2CO)c1C` [Example 38, (5-(2,3-Dimethylphenyl)-3-(1-methyl-1H-pyrazol-4-yl)-1H-pyrazolo[4,3-b]pyridin-6-yl)methanol], the IC50 in test [1] was less than 6 nM; in test [2] (setting [7]), more than 100 nM; in test [3], more than 100 nM; in test [4] (setting [8]), 6 to 40 nM.
On to `COc1cc2[nH]nc(-c3cnn(C)c3)c2nc1-c1cccc(CC#N)c1C` [Example 5, 2-(3-(6-Methoxy-3-(1-methyl-1H-pyrazol-4-yl)-1H-pyrazolo[4,3-b]pyridin-5-yl)-2-methylphenyl)acetonitrile], for which the IC50 is less than 6 nM in test [1], more than 100 nM in test [2] (setting [7]), more than 100 nM in test [3] and 6 to 40 nM in test [4] (setting [8]).
As for `COc1cc2[nH]nc(-c3cnn([C@H]4CCN(C(=O)[C@@H]5CCN5CCF)C4)c3)c2nc1-c1cccc2c1CCC2` [Example 143, ((S)-3-(4-(5-(2,3-dihydro-1H-inden-4-yl)-6-methoxy-1H-pyrazolo[4,3-b]pyridin-3-yl)-1H-pyrazol-1-yl)pyrrolidin-1-yl)((S)-1-(2-fluoroethyl)azetidin-2-yl)methanone], the IC50 in test [1] is less than 6 nM; in test [2] (setting [5]) it was 6 to 40 nM; in test [3] (setting [6]) it was 6 to 40 nM; in test [4], less than 6 nM.
`COc1cc2[nH]nc(-c3ccc(C4CCC(NC(=O)CO)C4)nc3)c2nc1-c1cccc2c1CCC2` (stereo not drawn) [Example 157, N-(3-(5-(5-(2,3-Dihydro-1H-inden-4-yl)-6-methoxy-1H-pyrazolo[4,3-b]pyridin-3-yl)pyridin-2-yl)cyclopentyl)-2-hydroxyacetamide]: the IC50 in test [1] was less than 6 nM; in test [2] (setting [7]) it was 40 to 100 nM; in test [3] it was 40 to 100 nM; in test [4], less than 6 nM.
Take `COc1cc2[nH]nc(-c3cnn([C@@H]4CCN(C(=O)[C@@H]5COCCN5C)C4)c3)c2nc1-c1cccc2c1CCC2` [Example 137, ((R)-3-(4-(5-(2,3-Dihydro-1H-inden-4-yl)-6-methoxy-1H-pyrazolo[4,3-b]pyridin-3-yl)-1H-pyrazol-1-yl)pyrrolidin-1-yl)((S)-4-methylmorpholin-3-yl)methanone]: the IC50 in test [1] is less than 6 nM; in test [2] (setting [5]), 6 to 40 nM; in test [3], 40 to 100 nM; in test [4], less than 6 nM.
In the case of `COc1cc2[nH]nc(-c3ccc(C4CN(C(=O)CN(C)C)C4)nc3)c2nc1-c1cccc2c1CCC2` [Example 174, 1-(3-(5-(5-(2,3-Dihydro-1H-inden-4-yl)-6-methoxy-1H-pyrazolo[4,3-b]pyridin-3-yl)pyridin-2-yl)azetidin-1-yl)-2-(dimethylamino)ethan-1-one], the IC50 in test [1] was less than 6 nM; in test [2] (setting [5]), 6 to 40 nM; in test [3], 40 to 100 nM; in test [4] it was less than 6 nM.
Turning to `COc1cc2[nH]nc(-c3cnn(C4CN(C(=O)CN5CCN(C)CC5)C4)c3)c2nc1-c1cccc2c1CCC2` [Example 120, 1-(3-(4-(5-(2,3-Dihydro-1H-inden-4-yl)-6-methoxy-1H-pyrazolo[4,3-b]pyridin-3-yl)-1H-pyrazol-1-yl)azetidin-1-yl)-2-(4-methylpiperazin-1-yl)ethan-1-one], the IC50 in test [1] was less than 6 nM; in test [2] (setting [5]) it was 6 to 40 nM; in test [3], 40 to 100 nM; in test [4] it was less than 6 nM.
In the case of `COc1cc2[nH]nc(-c3ccc(C4CCN(C(C)=O)C4)nc3)c2nc1-c1cccc2c1CCC2` (single isomer, unassigned) [Example 104, 1-(3-(5-(5-(2,3-Dihydro-1H-inden-4-yl)-6-methoxy-1H-pyrazolo[4,3-b]pyridin-3-yl)pyridin-2-yl)pyrrolidin-1-yl)ethan-1-one], the IC50 in test [1] (read-out: FGFR3, wild-type un-phosphorylated FGFR3, pre-incubated for 4 hours) was less than 6 nM; in test [2] (setting [5]), 6 to 40 nM; in test [3] (setting [6]), 6 to 40 nM; in test [4] (setting [8]) it was less than 6 nM.
Regarding `COc1cc2[nH]nc(-c3cnn(C4CN(C)C4)c3)c2nc1-c1cccc2c1CCC2` [Example 17, 5-(2,3-Dihydro-1H-inden-4-yl)-6-methoxy-3-(1-(1-methylazetidin-3-yl)-1H-pyrazol-4-yl)-1H-pyrazolo[4,3-b]pyridine], the IC50 in test [1] is less than 6 nM; in test [2] (setting [7]), 40 to 100 nM; in test [3] it was more than 100 nM; in test [4] it was less than 6 nM.
`COc1cc2[nH]nc(-c3ccc(C4CCN(C(C)=O)C4)nc3)c2nc1-c1cccc2c1CCC2` (single isomer, unassigned) [Example 103, 1-(3-(5-(5-(2,3-Dihydro-1H-inden-4-yl)-6-methoxy-1H-pyrazolo[4,3-b]pyridin-3-yl)pyridin-2-yl)pyrrolidin-1-yl)ethan-1-one]: the IC50 in test [1] was less than 6 nM; in test [2] (setting [5]), 6 to 40 nM; in test [3] (setting [6]) it was 6 to 40 nM; in test [4] it was less than 6 nM.
Consider `COc1cc2[nH]nc(-c3ccc(C4CCN(C(=O)CO)C4)nc3)c2nc1-c1cccc2c1CCC2` (single isomer, unassigned) [Example 101, 1-(3-(5-(5-(2,3-Dihydro-1H-inden-4-yl)-6-methoxy-1H-pyrazolo[4,3-b]pyridin-3-yl)pyridin-2-yl)pyrrolidin-1-yl)-2-hydroxyethan-1-one], for which the IC50 in test [1] was less than 6 nM; in test [2] (setting [5]), 6 to 40 nM; in test [3] (setting [6]) it was 6 to 40 nM; in test [4], less than 6 nM.

(Values after patent US12083124B2 (Incyte Corporation, priority 2019, dated 2024).)
